In patent US20140241988A1, “METHODS AND COMPOSITIONS FOR TREATING ATRIAL FIBRILLATION” (The Regents of The University of Michigan, priority 2013, published 2014):
“Also recorded” adds a separate entry of the source.

Columns and labels:
[1] = system: adult sheep atrial myofibroblasts; assay: Cell proliferation assay (WST reagent); type: cell-based; details: Gal-3 1-30 μg/ml, 24 hours, SFM
Description: (§1) Wound healing experiments were performed to investigate if exogenous Gal-3 can increase myofibroblast migration in vitro (FIG. 3). Adult sheep atrial fibroblasts were cultured in 96-well plates until confluent. Before serum starvation, cells were stained with cell tracker dye and DAPI. A wound was created by scraping a semi-confluent monolayer of cells with a 1 ml pipette tip. Thereafter, cells underwent serum starvation in DMEM with 5% FBS for 6 hrs. Comparisons were made between untreated and Gal-3 treated (1 μg/ml or 10 μg ml) cells. The wound was imaged at 4 different locations at 3 different time points (days 0, 1 and 2). The size of the wound was quantified using the NIS element program by Nikon. […] Next, to investigate the effects of Gal-3 on myofibroblast proliferation, adult sheep atrial fibroblasts were treated with recombinant human Gal-3 (EMD chemicals, USA) for 24 hours in the presence of SFM. FM was included as a positive control. Cell proliferation was measured using cell proliferation reagent WST (Roche Diagnostics, USA). […] Such concentrations are in the same range used previously (Sharma et al., Circulation. 2004; 110:3121-3128) to investigate Gal-3 induced fibroblast proliferation in the cardiomyopathic heart.

[2] = system: adult sheep atrial fibroblasts; assay: Wound healing (migration) assay; type: cell-based; details: Gal-3 10 μg/ml, days 0-2
Description: as §1

[3] = system: SCN5A; assay: qPCR mRNA expression; type: cell-based, rat
Description: (§2) Cell Treatment: Isolated adult rat cardiac myocytes were treated with FCM or TGF-β1 (R and D systems, Minneapolis, Minn.) for 3 days in serum free medium. For PI3K pathway inhibition cells were pretreated (30 min) with 10 μM […] (Cayman Chemicals, Ann Arbor) before the treatment with TGF-β1. mRNA analysis by quantitative PCR (qPCR): Cardiac myocytes were washed with PBS and lysed with lysis buffer. RNA was isolated from the myocardial tissue using RNAeasy kit from Qiagen (Qiagen, Valencia, Calif.) according to the manufacturer's instructions. Isolated RNA from these samples was treated with DNase for 15 min at room temperature (Qiagen, Valencia, Calif.). 100 ng of DNA-free total poly-A tail RNA (mRNA) was first subjected to synthesis of cDNA using Oligo dT primers applying SuperScript III First-Strand Synthesis System from Invitrogen (Invitrogen, Carlsbad, Calif.) according to the manufacturer's instructions. cDNA from 20 ng of total RNA was then subjected to real-time RT-PCR using predesigned taqman probe primers specific for rat Scn5a (Rn00565502), Kcnip2 (Kchip2; Rn01411451) and kcnd2 (Rn01456260) (Applied Biosystems, California). No-template controls and no-RT controls were run during each experiment to detect any RNA and/or DNA contamination. Results are expressed as fold expression of gene of interest normalized to GAPDH expression in the sample. Western blotting: Control and treated cardiac myocytes were washed in cold PBS, lysed directly in the modified loading buffer (25 mmol/l Tris.HCl; 150 mmol/l NaCl; 1 mmol/l EDTA; 4 mmol/l NaF; 2 mmol/l Sodium ortho-vanadate; 1% Triton X-100, protease inhibitor, 5% glycerol, 1% SDS, 0.05% bromophenol blue, 5% β mercaptoethanol) and sonicated. The lysate (20 μl) were then subjected SDS-PAGE as described earlier. The blots were incubated with rabbit pFOXO1 antibody, 1:500 (Cell Signaling) or rabbit GAPDH antibody, 1:5000 (Sigma-Aldrich, St. Louis, Mo.). Patch-clamp experiments: Whole-cell ionic currents were recorded from adult rat ventricular myocytes. All recordings were conducted at room temperature. Sodium current recordings were conducted in a low-sodium extracellular solution containing (in mM): NaCl, 10; MgCl2, 1; CaCl2, 1.8; CdCl2, 0.1; HEPES, 20; CsCl, 127.5; glucose, 11. The pipette solution contained (in mM): NaCl, 5; CsF, 135; EGTA, 10; MgATP, 5; HEPES, 5. To characterize the voltage dependence of the peak INa, single cells were held at −120 mV, and 200 msec voltage steps were applied from −90 to +30 mV in 5 mV increments. The interval between voltage steps was 3 sec. Voltage-dependence of inactivation was assessed by holding cells at various potentials from −160 to −40 mV followed by a 30 msec test pulse to −40 mV to elicit INa. […]

[4] = system: FOXO1; assay: Western blot of FOXO1 phosphorylation; type: cell-based, rat
Description: as §2, with “The blots were incubated with rabbit pFOXO1 antibody, 1:500 (Cell Signaling) or rabbit GAPDH antibody, 1:5000 (Sigma-Aldrich, St. Louis, Mo.).” left out, “All recordings were conducted at room temperature. Sodium current recordings were conducted in a low-sodium extracellular solution containing (in mM): NaCl, 10; MgCl2, 1; CaCl2, 1.8; CdCl2, 0.1; HEPES, 20; CsCl, 127.5; glucose, 11. The pipette solution contained (in mM): NaCl, 5; CsF, 135; EGTA, 10; MgATP, 5; HEPES, 5. To characterize the voltage dependence of the peak INa, single cells were held at −120 mV, and 200 msec voltage steps were applied from −90 to +30 mV in 5 mV increments. The interval between voltage steps was 3 sec.” left out

[5] = system: adult rat ventricular myocytes; assay: Whole-cell patch clamp, transient outward potassium current (Ito); type: cell-based; details: 72 hr
Source text: The extracellular solution for transient outward potassium current (Ito) contained (in mM): 136 NaCl, 4 KCl, 1.8 CaCl2, 2 MgCl2, 10 HEPES, 0.03 tetrodotoxin, 0.01 nifedipine, and 14 glucose, pH 7.35. The pipette solution contained (in mM):135 KCl, 1 MgCl2, 10 EGTA, 10 HEPES, 5 glucose, pH 7.2. Voltage-gated outward K+ currents were evoked during 5-s depolarizing voltage steps to potentials between −40 and +60 mV from a holding potential of −70 mV; voltage steps were presented in 10 mV increments at 15 s intervals
(§3) In all experiments, cells were exposed to one of the following for 72 hrs prior to the experiment: control medium, FCM or TGF-β1.

[6] = system: KCND2; assay: qPCR mRNA expression; type: cell-based, rat; details: 1 ng/ml, 72 hr
Description: as §2

[7] = system: KCNIP2; assay: qPCR mRNA expression; type: cell-based, rat; details: 1 ng/ml, 72 hr
Description: as §2

[8] = system: adult rat ventricular myocytes; assay: Whole-cell patch clamp, peak inward sodium current (INa); type: cell-based
Description: as §2

[9] = system: adult rat ventricular myocytes; assay: Current clamp action potential recording; type: cell-based
Description: Action potentials were recorded from individual myocytes using the current clamp mode of the MultiClamp 700B amplifier after gigaseal formation and patch break. Stimulus pulses (1-2 ms duration) were generated using a World Precision Instruments DS8000 stimulator (Sarasota, Fla.). The bath solution contained (in mM): NaCl: 148, KCl: 5.4, MgCl2: 1, CaCl2 1.8, NaH2PO4: 0.4, HEPES: 15, Glucose: 5.5, pH 7.4 with NaOH. The pipette solution contained (in mM), KCl: 20, K-aspartate: 90, KH2PO4: 10, EDTA: 5.0, K2ATP: 1.9, HEPES: 5.0 and Mg2+ 7.9; pH 7.2 (KOH)
as §3

For “Gal-3: recombinant human Gal-3 (EMD chemicals, USA)”, the “proliferation (number) of adult sheep atrial myofibroblasts” value [1] was “increased the number of adult sheep atrial myofibroblasts in a concentration-dependent manner; also recorded: increases proliferation” and the “rate of migration / wound healing” value [2] was “significantly increased the rate of migration and promoted wound healing; also recorded: increases the rate of wound healing”.

O=c1cc(N2CCOCC2)oc2c(-c3ccccc3)cccc12 [LY 29004, reference compound] was tested, and the “TGF-β1 induced increase in SCN5A transcription” value ([3]; pretreated with PI3K inhibitor (10 μM, 30 min)) was “failed to show increased SCN5A transcription” and the “phosphorylation of FOXO1 in TGF-β1 treated cells” value ([4]; pretreated with PI3K inhibitor) was “inhibited”.

“TGF-β1: exogenous TGF-β1 cytokine (R and D systems, Minneapolis, Minn.)” was tested, and the “peak Ito” value ([5]; 1 ng/ml) was “significantly reduced the peak Ito but to a much modest level”, the Ito current density ([5]; 10 ng/ml, 60 mV) was 12.6±0.98 and the “Ito current density, % of control levels” value ([5]; 10 ng/ml, 60 mV) was 57%. The “reduction of Ito current density” value ([5]; 10 ng/ml, +20 mV) was 42%, the “SCN5A transcript levels, fold increase” value ([3]; 1 ng/ml, 72 hr) was 1.73±0.26 fold and the “decrease of KCND2 expression with respect to control” value [6] was 50.6%. For the same compound, the “reduction of KCNIP2 mRNA levels” value [7] was 77%, the “more inward current compared to control medium” value ([8]; 1 ng/ml, at −40V (so in the source)) was “about 40%” and the “EC50 for increase of peak inward INa density” value ([8]; 72 hours, 0.001-1.0 ng/ml) was 0.007 ng/mL. For the same compound, the “voltage dependence of activation (m∞) and inactivation (h∞)” value ([8]; 72 hr treatment) was “neither the m∞ nor the h∞ curve was modified”, the “maximum INa increase” value ([8]; at 1 ng/ml (also seen at 10 ng/ml), 72 hours) was “about 40%” and the APD30 ([9]; 10 ng/ml, BCL 1000 ms) was 29.1 ± 5.6 ms. For the same compound, the “APD30 times larger than control” value ([9]; 10 ng/ml, BCL 1000 ms) was > 3.5 times, the “APD / early afterdepolarizations” value ([9]; 50 ng/ml) was “APD was so prolonged that some cells early after depolarizations (EADs)” and the “increase in phosphorylated FOXO1 vs control” value ([4]; 1 ng/ml) was 67%. For the same compound, the “time of peak FOXO1 phosphorylation” value ([4]; 1 ng/ml) was 15 min.
